From patent US6852863B2, “Metabolites of (3-{[4-tert-butyl-benzyl)-(pyridine-3-sulfonyl)-amino]-methyl}-phenoxy)-acetic acid” (Pfizer Inc., priority 2002, dated 2005) come the findings set out here.

What is called IC50 is the point on the concentration scale where inhibition reaches its midpoint.

In data set [1] the target is T1, rat EP2 prostaglandin E2 receptor (Rattus norvegicus, UniProt Q62928).
T1 construct: This full length receptor is used to prepare 293S cells expressing the EP2 receptor; expressed in transfected cells; membranes used in the assay
T1 sequence (Q62928 whole entry): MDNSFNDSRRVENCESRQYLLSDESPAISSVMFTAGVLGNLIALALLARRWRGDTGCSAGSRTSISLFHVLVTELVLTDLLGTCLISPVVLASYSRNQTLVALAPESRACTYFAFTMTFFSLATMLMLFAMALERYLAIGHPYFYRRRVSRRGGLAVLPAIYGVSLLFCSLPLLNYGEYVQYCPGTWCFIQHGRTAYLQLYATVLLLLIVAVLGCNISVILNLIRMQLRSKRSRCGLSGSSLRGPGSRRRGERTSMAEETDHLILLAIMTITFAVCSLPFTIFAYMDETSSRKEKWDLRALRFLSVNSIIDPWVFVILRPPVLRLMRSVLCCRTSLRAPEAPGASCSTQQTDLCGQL
Kind of data set: Rat EP2 receptor binding assay (displacement of 3H-prostaglandin E2). Particulars: 293S cell membranes expressing rat EP2, 3 nM 3H-prostaglandin E2, 1 hour at 25° C. The source says: Rat EP2 Recptor Binding Assay
Assay for Binding to Prostaglandin E2 Receptors
The full length EP2 receptor is made as disclosed in Nemoto et al., Prostaglandins and other Lipid Mediators, 1997, 54, 713-725. This full length receptor is used to prepare 293S cells expressing the EP2 receptor.
293S cells expressing the rat EP2 prostaglandin E2 receptor are generated according to methods known to those skilled in the art. Typically, PCR (polymerase chain reaction) primers corresponding to the 5′ and 3′ ends of the published full length receptor are made according to the well known methods disclosed above and are used in an RT-PCR reaction using the total RNA from rat kidney as a source. […]
Membrane Preparation: All operations are performed at 4° C. […] Pelleted membranes are resuspended to 3-10 mg protein per ml, protein concentration being determined of the method of Bradford [Bradford, M., Anal. Biochem., 72, 248 (1976)]. […]
Binding Assay: Frozen membranes prepared as above are thawed and diluted to 1 mg protein per ml in Buffer A above. […] To determine the amount of ^3H-prostaglandin bound to the membranes, the dried filters are placed into plastic bags with scintillation fluid and counted in a LKB 1205 Betaplate reader (Wallac, Gaithersburg, Md.). […]
A general note: Loss of bound radioactivity is the signal in a displacement assay; it reports binding, not function.

Data set [2] can be described thus: Metabolism of 14C-parent in rat liver microsomes. The format is in vitro ADME. Particulars: 20 μM 14C-parent, NADPH, 30 minutes, 37° C.; HPLC radiochromatogram peak. The method, then: Human (HL-mix 12), rat, monkey and dog liver microsomes were prepared by differential centrifugation using standard procedures. Prior to use, liver microsomes were thawed on ice and reconstituted using 100 mM potassium phosphate pH 7.4. [^14C]-(3-{[4-tert-butyl-benzyl)-(pyridine-3-sulfonyl)-amino]-methyl}-phenoxy)-acetic acid was dissolved 100 mM potassium phosphate pH 7.4 at a final substrate concentration of 20 μM. Samples were pre-incubated for 3 min with microsomes (CYP 450; 0.5 μM) at 37° C. in a shaking water bath. Incubations were initiated with the addition of 100 μl cofactor (1.1 mM NADPH, 10 mM MgCl2) per 1 ml of incubation mixture. Incubations were stopped after 30 minutes by the addition of an equal volume of cold acetonitrile.
Metabolite quantification was performed by measuring the areas of individually separated HPLC peaks using the β-RAM (IN/US, Win-flow). […]
Identification of the metabolites was performed using a Finnigan TSQ 7000 triple quadrupole mass spectrometer equipped with an API-2 electrospray interface. […] The β-RAM response was recorded as a real time analog signal by the MS data collection system. The collected data from the radioactivity and MS detectors were separated by the dwell volume of flow from the MS to the radioactivity detector (corresponding to a dwell time of about 0.2 min.). […]
For orientation: Microsomes from liver hold many membrane-bound enzymes, among them those of drug oxidation.

Compound `CC(C)(CO)c1ccc(CN(Cc2cccc(OCC(=O)O)c2)S(=O)(=O)c2cccnc2)cc1` [Metabolite M4, (3-{[[4-(2-hydroxy-1,1-dimethyl-ethyl)-benzyl]-(pyridine-3-sulfonyl)-amino]-methyl}-phenoxy)-acetic acid] returned an IC50 in data set [1] of 170 nM. The “Percent of Radioactivity, Rat liver microsomes” value in data set [2] amounted to 4.38%.
